Measurements as given in patent publication US20260144788A1, “COMPOUND FOR SHP2 PROTEIN DEGRADATION AND MEDICAL USES THEREOF” (UBIX THERAPEUTICS, INC., priority 2022, published 2026).

Target: T1, SHP2 protein (Homo sapiens, UniProt Q06124)
T1 sequence (Q06124 1-593): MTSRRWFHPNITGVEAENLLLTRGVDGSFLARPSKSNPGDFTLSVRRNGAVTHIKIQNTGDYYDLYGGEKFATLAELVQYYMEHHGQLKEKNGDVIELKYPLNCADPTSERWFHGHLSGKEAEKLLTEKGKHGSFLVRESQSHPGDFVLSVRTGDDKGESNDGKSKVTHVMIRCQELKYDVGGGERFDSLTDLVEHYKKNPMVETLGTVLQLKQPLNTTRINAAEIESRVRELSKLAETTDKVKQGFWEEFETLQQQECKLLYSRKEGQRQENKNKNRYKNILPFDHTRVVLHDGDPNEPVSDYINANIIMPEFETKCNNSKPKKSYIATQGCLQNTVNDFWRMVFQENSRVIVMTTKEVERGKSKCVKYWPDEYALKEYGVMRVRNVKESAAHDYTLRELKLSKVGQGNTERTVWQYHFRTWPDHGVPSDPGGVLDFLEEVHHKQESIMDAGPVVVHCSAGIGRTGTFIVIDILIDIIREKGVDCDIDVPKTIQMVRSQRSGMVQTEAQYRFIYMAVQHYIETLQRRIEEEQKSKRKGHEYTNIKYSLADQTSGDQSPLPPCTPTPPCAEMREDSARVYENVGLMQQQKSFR
Test: Measurement of SHP2 protein degradation in NCI-H358 cells (western blotting)
Format: cell-based
Set-up: endogenous in cells; host or cells: NCI-H358
Settings: harvested after 24 hours
Outline: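 H358 cells in RPMI1640/25 mM HEPES/10% FBS, cultured 24 h, then exposed to compound at final 0.001, 0.01 and 0.1 μM for 24 h against a DMSO control. Lysates were normalised for protein by BCA and probed by western blot for SHP2, with GAPDH as loading control.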

SMILES | SHP2% degradation (0.01 μM) [%] | SHP2% degradation (0.1 μM) [%]
CC(=O)N[C@H](C(=O)N1C[C@H](O)C[C@H]1C(=O)NCc1ccc(-c2scnc2C)cc1O[C@H]1CC[C@H](C(=O)N2CC(Nc3cccc(Sc4cnc(N5CCC(C)(N)CC5)cn4)c3Cl)C2)CC1)C(C)(C)C [Example 28, (2S,4R)-1-((S)-2-acetamido-3,3-dimethylbutanoyl)-N-(2-(((1R,4S)-4-(3-((3-((5-(4-amino-4-methylpiperidin-1-yl)pyrazin-2-yl)thio)-2-chlorophenyl)amino)azetidine-1-carbonyl)cyclohexyl)oxy)-4-(4-methylthiazol-5-yl)benzyl)-4-hydroxypyrrolidine-2-carboxamide] | 86.9 | 98.5
CC(=O)N[C@H](C(=O)N1C[C@H](O)C[C@H]1C(=O)NCc1ccc(-c2scnc2C)cc1OC1CCN(C(=O)C2CCN(c3nccc(Sc4cnc(N5CCC(C)(N)CC5)cn4)c3Cl)CC2)CC1)C(C)(C)C [Example 76, (2S,4R)-1-((S)-2-acetamido-3,3-dimethylbutanoyl)-N-(2-((1-(1-(4-((5-(4-amino-4-methylpiperidin-1-yl)pyrazin-2-yl)thio)-3-chloropyridin-2-yl)piperidine-4-carbonyl)piperidin-4-yl)oxy)-4-(4-methylthiazol-5-yl)benzyl)-4-hydroxypyrrolidine-2-carboxamide] | 90.0 | 98.7
CC(=O)N[C@H](C(=O)N1C[C@H](O)C[C@H]1C(=O)N[C@@H](C)c1ccc(-c2scnc2C)cc1O[C@H]1CC[C@H](C(=O)N2CC(Nc3nccc(Sc4cnc(N5CCC(C)(CN)CC5)cn4)c3Cl)C2)CC1)C(C)(C)C [Example 49, (2S,4R)-1-((S)-2-acetamido-3,3-dimethylbutanoyl)-N—((S)-1-(2-(((1R,4S)-4-(3-((4-((5-(4-(aminomethyl)-4-methylpiperidin-1-yl)pyrazin-2-yl)thio)-3-chloropyridin-2-yl)amino)azetidine-1-carbonyl)cyclohexyl)oxy)-4-(4-methylthiazol-5-yl)phenyl)ethyl)-4-hydroxypyrrolidine-2-carboxamide] | 87.1 | 99.4
Cc1ncsc1-c1ccc(CNC(=O)[C@@H]2C[C@@H](O)CN2C(=O)[C@@H](NC(=O)C2(F)CC2)C(C)(C)C)c(OC2CCN(C(=O)C3CCN(c4nccc(Sc5cnc(N6CCC7(CC6)CO[C@@H](C)[C@H]7N)cn5)c4Cl)CC3)CC2)c1 [Example 67, (2S,4R)—N-(2-((1-(1-(4-((5-((3S,4S)-4-amino-3-methyl-2-oxa-8-azaspiro[4.5]decan-8-yl)pyrazin-2-yl)thio)-3-chloropyridin-2-yl)piperidine-4-carbonyl)piperidin-4-yl)oxy)-4-(4-methylthiazol-5-yl)benzyl)-1-((S)-2-(1-fluorocyclopropane-1-carboxamido)-3,3-dimethylbutanoyl)-4-hydroxypyrrolidine-2-carboxamide] | 94.5 | 96.9
CC(=O)N[C@H](C(=O)N1C[C@H](O)C[C@H]1C(=O)NCc1ccc(-c2scnc2C)cc1O[C@H]1CC[C@H](C(=O)N2CC(Nc3nccc(Sc4cnc(N5CCC(C)(N)CC5)cn4)c3Cl)C2)CC1)C(C)(C)C [Example 39, (2S,4R)-1-((S)-2-acetamido-3,3-dimethylbutanoyl)-N-(2-(((1R,4S)-4-(3-((4-((5-(4-amino-4-methylpiperidin-1-yl)pyrazin-2-yl)thio)-3-chloropyridin-2-yl)amino)azetidine-1-carbonyl)cyclohexyl)oxy)-4-(4-methylthiazol-5-yl)benzyl)-4-hydroxypyrrolidine-2-carboxamide] | 83.6 | 98.1

The remaining lines, values ahead:

SHP2% degradation (0.01 μM) [%] | SHP2% degradation (0.1 μM) [%] | SMILES
97.8 | 99.7 | CC(=O)N[C@H](C(=O)N1C[C@H](O)C[C@H]1C(=O)NCc1ccc(-c2scnc2C)cc1OC1CCN(C(=O)C2CCN(c3cccc(Sc4cnc(N5CCC(C)(CN)CC5)c(CO)n4)c3Cl)CC2)CC1)C(C)(C)C [Example 83, (2S,4R)-1-((S)-2-acetamido-3,3-dimethylbutanoyl)-N-(2-((1-(1-(3-((5-(4-(aminomethyl)-4-methylpiperidin-1-yl)-6-(hydroxymethyl)pyrazin-2-yl)thio)-2-chlorophenyl)piperidine-4-carbonyl)piperidin-4-yl)oxy)-4-(4-methylthiazol-5-yl)benzyl)-4-hydroxypyrrolidine-2-carboxamide]
98.6 | 98.0 | Cc1ncsc1-c1ccc(CNC(=O)[C@@H]2C[C@@H](O)CN2C(=O)[C@H](C(C)C)n2cc(C3CC3)nn2)c(OC2CCN(C(=O)C3CCN(c4nccc(Sc5cnc(N6CCC(C)(CN)CC6)c(CO)n5)c4Cl)CC3)CC2)c1 [Example 104, (2S,4R)—N-(2-((1-(1-(4-((5-(4-(aminomethyl)-4-methylpiperidin-1-yl)-6-(hydroxymethyl)pyrazin-2-yl)thio)-3-chloropyridin-2-yl)piperidine-4-carbonyl)piperidin-4-yl)oxy)-4-(4-methylthiazol-5-yl)benzyl)-1-((S)-2-(4-cyclopropyl-1H-1,2,3-triazol-1-yl)-3-methylbutanoyl)-4-hydroxypyrrolidine-2-carboxamide]
98.0 | 99.4 | CC(=O)N[C@H](C(=O)N1C[C@H](O)C[C@H]1C(=O)NCc1ccc(-c2scnc2C)cc1OC1CCN(C(=O)C2CCN(c3nccc(Sc4cnc(N5CCC(C)(CN)CC5)c(CO)n4)c3Cl)CC2)CC1)C(C)(C)C [Example 78, (2S,4R)-1-((S)-2-acetamido-3,3-dimethylbutanoyl)-N-(2-((1-(1-(4-((5-(4-(aminomethyl)-4-methylpiperidin-1-yl)-6-(hydroxymethyl)pyrazin-2-yl)thio)-3-chloropyridin-2-yl)piperidine-4-carbonyl)piperidin-4-yl)oxy)-4-(4-methylthiazol-5-yl)benzyl)-4-hydroxypyrrolidine-2-carboxamide]
